Source: paper PMC8780580, “The Neuroactive Steroid Pregnanolone Glutamate: Anticonvulsant Effect, Metabolites and Its Effect on Neurosteroid Levels in Developing Rat Brains” (Pharmaceuticals, 2021)
Structures can show the parent of a compound that is named as a salt.

Key:
[1] = within 0.5 min of uptake; cited from earlier work
[2] = Steroidomic (GC-MS/MS) analysis of hippocampal tissue after PA-G administration; details: for concentration at 20 min: male, Wistar, rat, in vivo, ip, Steroid concentration in hippocampal tissue, PA-G-Treated (P); for concentration at 20 min / increase in concentration compared with basal levels: 1 mg/kg; for concentration at 20 min / fold increase in the concentration in the rat hippocampus above the basal levels / percentage of total significantly increased (5β) steroids in the rat hippocampus: 20 min after PA-G i.p., 1 mg/kg in CDX; for increase in concentration compared with basal levels: after PA-G i.p.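 As to all read-outs here: hippocampal steroids quantified by GC-MS/MS, covering free and conjugated forms after hydrolysis, compared against intact rats and rats injected with CDX vehicle alone, five animals per group.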
Procedure: In a separate experiment, samples of the hippocampus were obtained from male albino Wistar rats in 6 experimental groups consisting of P12 and P25 animals that were either intact (I), controls (C, i.p. application of a solution of CDX), or in the experimental group (i.p. application of PA-G in a solution of CDX at a dose of 1 mg/kg). Each group consisted of 5 animals. The animals were sacrificed using ether anaesthesia (Penta, Czech Republic) 30 min after administration of the drug. The hippocampi were quickly removed, weighed, and frozen at −80 °C in sterile plastic microvials until analysis.
An amount of 17–100 mg of the hippocampal tissue was minced and then administered into screw-cap tubes. Next, 2 mL of methanol with a mixture of internal standards was added, and the samples were incubated for 1 week in a refrigerator at 4 °C with agitation for 2 min once a day. Afterwards, the extract was transferred into new screw-cap tubes and dried in a vacuum centrifuge at 45 °C. After that, 1 mL of water of chromatographic purity was added, and the samples were further treated as described in our recently published paper [76].
Briefly, the unconjugated steroids were extracted from a testing sample with diethyl-ether, the extract was dried, and the lipids were separated by partitioning between a mixture of methanol with water (4:1, v/v) and pentane. The pentane phase was discarded, and the polar phase was dried and used for further analysis of the unconjugated steroids. Steroid conjugates remaining in the polar residue after diethyl ether were hydrolyzed to their parent hydroxy steroids (unconjugated molecules) and analyzed.

[3] = tested on: pentylenetetrazol-induced seizures; assay: Pentylenetetrazol (PTZ)-induced seizures in 12- and 25-day-old rats; type: in vivo, male Wistar albino rats
Procedure: Solutions of PA-G and PA-S were administered intraperitoneally at a concentration of 1 mg/mL, and doses of 1, 5, 10, and 20 mg/kg were used. The solutions of zuranolone were administered intraperitoneally at a concentration of 1 mg/mL, and doses of 0.5, 1, 5, and 10 mg/kg were used. Controls were injected with CDX solution in a volume corresponding to the highest dose (i.e., 20 mL/kg). The same control group was used for PA-S and PA-G. Pentylenetetrazol (PTZ, Sigma Aldrich, Gillingham, Dorset, UK) was dissolved in water in a concentration of 50 mg/mL and was administered subcutaneously at a dose of 100 mg/kg 20 min after the administration of PA-G or PA-S. Each age and dose group comprised 8 animals. The rats were placed individually into plexiglass boxes and were then observed for 30 min after PTZ injection. The incidence, severity, and latencies of seizures were assessed. Younger animals were placed on a pad heated to 34 °C, i.e., to the temperature in the nest for the whole duration of the experiment because of immature thermoregulation. Generalized tonic-clonic or clonic seizures with a loss of righting reflexes were present after a dose of 100 mg/kg of PTZ in all control animals in both age groups. […] The severity of seizures was quantified using a five-point scale as follows: 0—no changes; 0.5—abnormal behaviour (e.g., automatisms, increased orienting reaction); 1—isolated myoclonic jerks; 2—atypical or prolonged minimal seizures; 3—clonic seizures (mS) involving head and forelimb muscles with preserved righting reflexes (older-term minimal pentetrazol seizures); 4—generalized seizures without the tonic phase (GCS); 5—complete generalized tonic-clonic seizures (GTCS).

GABAARs = details: allosteric displacement of [35S]-TBPS from the picrotoxin binding site on GABAARs; cited from earlier work
postpartum depression = tested on: postpartum depression; parameters: method as in PMID 34190962; details: women with postpartum depression, Phase 3 clinical trial; cited from earlier work
α4β3γ2 GABAARs = tested on: α4β3γ2 GABAARs; parameters: method as in PMID 15294445; details: at 100 μM; cited from earlier work
α4β3δ GABAARs = tested on: α4β3δ GABAARs; parameters: method as in PMID 15294445; details: cited from earlier work
[4] = P12 rats, i.p. doses of 5 and 10 mg/kg

Structure (SMILES): C[C@]12CC[C@H](OS(=O)(=O)O)CC1=CC[C@@H]1[C@@H]2CC[C@]2(C)C(=O)CC[C@@H]12 [Dehydroepiandrosterone sulfate (DHEA-S), 17-oxo-androst-5-en-3β-yl 3-sulfate]
- desulfation [1]: > 50%
- concentration at 20 min ([2]; 12-day-old rats): 4.86 ng/g
- concentration at 20 min ([2]; 25-day-old rats): 1.52 ng/g

Structure (SMILES): C[C@@]1(O)CC[C@H]2[C@H](CC[C@@H]3[C@@H]2CC[C@]2(C)[C@@H](C(=O)Cn4cc(C#N)cn4)CC[C@@H]32)C1 [zuranolone]
- development of GS [3, 4]: abolished
- seizure severity [3, 4]: significant decrease in seizure severity
- latencies of mS ([3]; P25 rats): increase in the latencies of mS
- development of GS ([3]; P25 rats, all tested doses (0.5, 1, 5, 10 mg/kg i.p.)): completely suppressed development of GS
- seizure severity ([3]; P25 rats, i.p. dose of only 1 mg/kg): significantly decreased seizure severity
- development of mS ([3]; P25 rats, i.p. doses of 5 and 10 mg/kg): suppressed the development of mS
- IC50 (GABAARs): 7 nM
- symptoms of depression (postpartum depression): improved the symptoms of depression

Structure (SMILES): CC(=O)[C@@]1(O)CCC2C3CC[C@@H]4C[C@H](O)CC[C@]4(C)C3CC[C@@]21C (stereo partly drawn) [17-OH-PA, 17-hydroxy-pregnanolone]
- greatest response (α4β3γ2 GABAARs): 20%
- maximum efficacy (α4β3δ GABAARs): 57%
- EC50 (α4β3δ GABAARs; read-out: EC50 (potentiation of responses)): 3500 nM
- proportion of the brain's 5β-steroids in the tissue ([2]; 20 min after PA-G administration): about three-quarters
- fold increase in the concentration in the rat hippocampus above the basal levels ([2]; P12): 562 x
- percentage of total significantly increased (5β) steroids in the rat hippocampus ([2]; P12): 73.7%
- increase in concentration compared with basal levels ([2]; P12 animals): up to 560 fold
- metabolite of PA-G identified in hippocampus ([2]; P12 vs. P25 animals, 20 min after PA-G administration): major metabolite
- fold increase in the concentration in the rat hippocampus above the basal levels ([2]; P25): 35.8 x
- percentage of total significantly increased (5β) steroids in the rat hippocampus ([2]; P25): 75.9%
- increase in concentration compared with basal levels ([2]; P25 animals): 36 fold
- concentration at 20 min ([2]; 12-day-old rats): 518 ng/g
- concentration at 20 min ([2]; 25-day-old rats): 40.8 ng/g
